We go through 13 molecules from ChEMBL document CHEMBL5325415, “Falcipains: Biochemistry, target validation and structure-activity relationship studies of inhibitors as antimalarials” (Eur J Med Chem, 2023).

*1 amine or outer side, *2 acyl side, *3 side chain or, on linkers, in order; H or OH if unused. Where a SMILES comes first, the peptide text is derived from it. [ ]: non-standard residue; d: D form. The star is where a group is joined. hPhe = N[C@@H](CCc1ccccc1)C(=O)O; Ac6c = NC1(C(=O)O)CCCCC1; Morpholide = C1CN(*)CCO1; Cbz = O=C(OCc1ccccc1)*; CO = O=C([*:1])[*:2]; CH2F = FC*

The subject of data set [1] is Cathepsin B (relative to Plasmodium falciparum FP-2). The data set is described as follows: Selectivity index, ratio of Ki for inhibition of human Cathepsin B to Ki for inhibition of Plasmodium falciparum FP-2. Type of data set: toxicity. To be noted: read-out: Ratio Ki.
For data set [2], the system named is Cathepsin L (relative to Plasmodium falciparum FP-2). Description: Selectivity index, ratio of Ki for inhibition of human Cathepsin L to Ki for inhibition of Plasmodium falciparum FP-2. Type of data set: toxicity. To be noted: read-out: Ratio Ki.
In data set [3] the target is T1, Falcipain 2 (Plasmodium falciparum, UniProt Q9N6S8).
T1 sequence (Q9N6S8 whole entry): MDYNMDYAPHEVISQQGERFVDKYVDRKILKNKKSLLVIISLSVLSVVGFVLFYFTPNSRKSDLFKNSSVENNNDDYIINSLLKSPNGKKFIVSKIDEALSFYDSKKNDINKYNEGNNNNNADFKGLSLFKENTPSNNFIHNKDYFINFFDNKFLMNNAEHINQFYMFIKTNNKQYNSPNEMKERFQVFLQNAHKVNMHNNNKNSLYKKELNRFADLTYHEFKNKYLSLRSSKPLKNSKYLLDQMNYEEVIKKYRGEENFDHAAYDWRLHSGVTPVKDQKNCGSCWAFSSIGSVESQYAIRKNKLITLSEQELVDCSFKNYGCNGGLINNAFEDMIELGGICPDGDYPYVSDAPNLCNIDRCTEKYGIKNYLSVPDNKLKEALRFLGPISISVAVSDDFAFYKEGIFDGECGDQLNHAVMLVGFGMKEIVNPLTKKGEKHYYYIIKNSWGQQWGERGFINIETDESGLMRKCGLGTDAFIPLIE
The data set is described as follows: Inhibition of Plasmodium falciparum FP-2 using Cbz-Leu-Arg-AMC as substrate and measured for 5 to 10 mins by fluorescence spectrophotometric analysis.

Data set [4] concerns Plasmodium falciparum. Description: Antiplasmodial activity against Plasmodium falciparum W2. Type of data set: functional, organism-based.
Data set [5] deals with Plasmodium falciparum. The data set is described as follows: Antiplasmodial activity against Plasmodium falciparum D6. Type of data set: functional, organism-based.
Data set [6] deals with T1, Falcipain 2. Description: Inhibition of Plasmodium falciparum trophozite extracts FP-2.
Data set [7] deals with Plasmodium falciparum. Description: Antiplasmodial activity against Plasmodium falciparum ItG2. Type of data set: functional. As to conditions: read-out: LD50 (the source's name).
For data set [8], the system named is Plasmodium falciparum. Description: Antiplasmodial activity against Plasmodium falciparum FCR3. It counts as functional, organism-based.
In data set [9] the test system is Plasmodium falciparum. Description: Antiplasmodial activity against Plasmodium falciparum HB3. Type of data set: functional, organism-based.
Data set [10] relates to Plasmodium falciparum. The data set is described as follows: Antiplasmodial activity against Plasmodium falciparum ItG. Type of data set: functional, organism-based.
Data set [11] deals with Plasmodium falciparum. Description: Antiplasmodial activity against Plasmodium falciparum Dd2. It counts as functional, organism-based.
The target of data set [12] is T1, Falcipain 2. The data set is described as follows: Inhibition of Plasmodium falciparum Itg2 trophozite extracts FP-2 using Z-phe-Arg-AMC as substrate pretreated with enzyme for 30 mins followed by substrate addition and measured for 30 mins by spectrofluorometry.
The nature of data set [13]: Inhibition of Plasmodium vinckei extracts VP-2 using Z-phe-Arg-AMC as substrate pretreated with enzyme for 30 mins followed by substrate addition and measured for 30 mins by spectrofluorometry.
The test system of data set [14] is Plasmodium falciparum. The data set is described as follows: Antiplasmodial activity against Plasmodium falciparum W2 infected in human erythrocytes assessed as inhibition of parasite growth measured after 48 hrs by flow cytometry. As to conditions: W2, Erythrocyte. Type of data set: functional, organism-based. Background: A flow cytometer gives signals particle by particle.

For data set [15], the target named is T1, Falcipain 2. Description: Inhibition of Plasmodium falciparum FP-2 using Z-Leu-Arg-AMC as substrate pretreated with enzyme for 30 mins followed by substrate addition and measured for 15 mins by spectrofluorometry.
Data set [16] concerns Plasmodium falciparum. The data set is described as follows: Antimalarial activity against Chloroquine-resistant Plasmodium falciparum RKL9 infected in human erythrocytes assessed as inhibition of parasite growth incubated for 72 hrs by Giemsa staining based analysis. As to conditions: RKL9, Erythrocyte. It counts as functional, organism-based.
For data set [17], the target named is T1, Falcipain 2. The data set is described as follows: Inhibition of Plasmodium falciparum FP-2 using Z-Phe-Arg-AMC as substrate pretreated with enzyme for 10 mins followed by susbtrate addition and measured after 10 mins by fluorescence based analysis.
The next data set relates to Heme. Description: Inhibition of heme (unknown origin) assessed as inhibition of hemozoin formation incubated for 24 hrs by FBIT test.
The subject of data set [18] is Plasmodium falciparum. Description: Antimalarial activity against Chloroquine-sensitive Plasmodium falciparum 3D7 infected in human erythrocytes assessed as inhibition of parasite growth incubated for 72 hrs by Giemsa staining based analysis. To be noted: 3D7, Erythrocyte. Type of data set: functional, organism-based.
For another data set, the system named is Plasmodium vinckei. Description: Antimalarial activity against Plasmodium vinckei infected in Swiss webster mouse assessed as disease cure rate at 50 to 100 mg/kg, po administered twice a day for 4 days. To be noted: dose 50-100 mg/kg, time 4 day. Type of data set: functional.
The target of the next data set is T2, Falcipain-3 (Plasmodium falciparum 3D7, UniProt Q8IIL0).
T2 sequence (Q8IIL0 whole entry): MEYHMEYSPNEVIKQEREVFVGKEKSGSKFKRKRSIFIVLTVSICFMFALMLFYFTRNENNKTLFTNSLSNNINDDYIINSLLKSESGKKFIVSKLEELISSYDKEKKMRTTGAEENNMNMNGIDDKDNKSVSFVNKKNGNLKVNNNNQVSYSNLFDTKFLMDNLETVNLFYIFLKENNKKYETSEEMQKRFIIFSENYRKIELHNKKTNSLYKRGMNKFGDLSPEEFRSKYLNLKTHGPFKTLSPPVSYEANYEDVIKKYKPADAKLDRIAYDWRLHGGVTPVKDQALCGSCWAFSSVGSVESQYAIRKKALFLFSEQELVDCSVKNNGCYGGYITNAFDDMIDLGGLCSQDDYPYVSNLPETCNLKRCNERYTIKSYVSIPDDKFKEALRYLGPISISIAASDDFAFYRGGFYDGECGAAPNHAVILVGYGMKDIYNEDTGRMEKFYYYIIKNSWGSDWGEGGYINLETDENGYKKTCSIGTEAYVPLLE
The data set is described as follows: Inhibition of Plasmodium falciparum D10 trophozite lysates FP-3 pretreated with compound for 1 hr followed by labeling with Cy5-DCG04 for 1 hr by fluorescence scanning analysis. It counts as subcellular.

Data set [19] has as its target T1, Falcipain 2. The data set is described as follows: Binding affinity to Plasmodium falciparum FP-2 by surface plasmon resonance analysis. For orientation: In SPR one partner is held on a chip, and binding of the other changes the refractive index at the surface.
In data set [20] the test system is Plasmodium falciparum. Description: Antiplasmodial activity against chloroquine-sensitive Plasmodium falciparum D6 infected in human RBC assessed as inhibition of parasite growth measured after 72 hrs by Malstat assay. To be noted: D6, Erythrocyte. Type of data set: functional, organism-based.
The target in data set [21] is T1, Falcipain 2. The data set is described as follows: Inhibition of Plasmodium falciparum FP-2 using Z-Leu-Arg-AMC as substrate pretreated with enzyme for 30 mins followed by substrate addition and measured for 30 mins by spectrofluorometry.
The subject of data set [22] is Plasmodium falciparum. The data set is described as follows: Antiplasmodial activity against chloroquine-resistant Plasmodium falciparum W2 infected in human RBC assessed as inhibition of parasite growth measured after 72 hrs by Malstat assay. It counts as functional, organism-based. As to conditions: W2, Erythrocyte.
Data set [23] concerns the target T1, Falcipain 2. Description: Inhibition of Plasmodium falciparum FP-2 using Z-phe-Arg-AMC as substrate pretreated with enzyme for 30 mins followed by substrate addition and measured for 30 mins by fluorescence based analysis.
Data set [24] deals with Plasmodium falciparum. Description: Antimalarial activity against Plasmodium falciparum FCB1 infected in erythrocytes assessed as inhibition of [3H]hypoxanthine incorporation incubated for 24 to 48 hrs by beta counting analysis. As to conditions: FCB1, Erythrocyte. It counts as functional, organism-based.

Usually Ki stands for the dissociation constant of the complex between target and ligand, obtained from inhibition or displacement. A lower Ki goes with tighter binding. Consider `N#CCNC(=O)C1(NC(=O)OCc2ccccc2)CCCCC1`, for which the selectivity ratio in [1] is > 100; in data set [2], 22.1. On Falcipain 2 [3], this molecule came in with a Ki of 1.2 µM.

With `O=CCNC(=O)C1(NC(=O)OCc2ccccc2)CCCCC1` (Cbz-[Ac6c]-Gly-aldehyde), the selectivity ratio in data set [1] stood at 20.8; in data set [2], 12.6. This molecule also came in with a Ki at Falcipain 2 [3] of 0.065 µM.

The IC50 is the concentration needed to halve the response being measured. Turning to `N=C(N)NCCC[C@H](NC(=O)[C@H](Cc1ccccc1)NC(=O)OCc1ccccc1)C(=O)CF` (Cbz-Phe-Arg-CH2F), the half-maximal inhibitory concentration (IC50) in the data set with Plasmodium falciparum [4] is 0.064 µM; with Plasmodium falciparum [5], 0.064 µM; against Falcipain 2 [6], 0.00036 µM; in the data set on Plasmodium falciparum [8], 0.064 µM; in the data set with Plasmodium falciparum [9], 0.1 µM. In addition, the LC50 with Plasmodium falciparum [7] turned out to be 0.064 µM.

As to `O=C(CF)[C@H](CCc1ccccc1)NC(=O)[C@H](Cc1ccccc1)NC(=O)N1CCOCC1` ({Morpholide-CO}-Phe-[hPhe]-CH2F), the IC50 in the data set on Plasmodium falciparum [4] was found to be 0.00081 µM; with Plasmodium falciparum [5], 0.0009 µM; with Plasmodium falciparum [10], 0.00051 µM; at Falcipain 2 [6] it was 0.003 µM; in the data set on Plasmodium falciparum [11] it was 0.00078 µM; in the data set with Plasmodium falciparum [9], 0.00066 µM.

For the molecule `CC(C)C[C@H](NC(=O)N1CCN(C)CC1)C(=O)N[C@H](/C=C/S(=O)(=O)c1ccccc1)CCc1ccccc1`, the IC50 on Falcipain 2 [12] stood at 0.005 µM; in the data set with Plasmodium falciparum [4], 0.00045 µM; in the data set on Plasmodium falciparum [5], 0.00058 µM; in [13], 0.2 µM; with Plasmodium falciparum [10], 0.0006 µM; with Plasmodium falciparum [11], 0.0004 µM. The molecule also gave a half-inhibitory concentration (IC50) with Plasmodium falciparum [9] of 0.00044 µM.

In general, EC50 refers to the concentration that produces a half-maximal response. As for `COc1cc(OC)c(/C=C2\SC(=O)N(CC(=O)N3CCN(c4ccccc4)CC3)C2=O)c(OC)c1`, the concentration giving a half-maximal response (EC50) in the data set on Plasmodium falciparum [14] was 0.45 µM. Moreover, on Falcipain 2 [15], the IC50 was determined as 25.5 µM.

Regarding `COc1cccc(/C=C(\C#N)c2nc3ccccc3[nH]2)c1`, the half-inhibitory concentration (IC50) came to 3.41 µM in the data set on Plasmodium falciparum [16], 2.21 µM at Falcipain 2 [17], 0.26 µM with Heme and 0.69 µM in the data set with Plasmodium falciparum [18].

For the molecule `CC(C)C[C@H](NC(=O)N1CCN(C)CC1)C(=O)N[C@H](/C=C/S(=O)(=O)c1ccc2ccccc2c1)CCc1ccccc1`, the concentration for half-maximal inhibition (IC50) on Falcipain 2 [12] amounted to 0.002 µM; in the data set with Plasmodium falciparum [4] it was 0.0002 µM; in the data set on Plasmodium falciparum [5], 0.00022 µM; in [13] it was 0.02 µM; in the data set with Plasmodium falciparum [10], 0.00018 µM; in the data set with Plasmodium falciparum [11] it was 0.00032 µM. In the data set with Plasmodium falciparum [9], this molecule showed a half-inhibitory concentration (IC50) of 0.00019 µM. Moreover, the Activity in the data set with Plasmodium vinckei is given as 40%.

Turning to `CC[C@H](C)[C@@H](C(=O)O[C@@H](CC(C)C)C(=O)N[C@@H](CC(C)C)C(=O)N[C@@H](C)/C=C/C(=O)N1C(=O)C=C(OC)[C@@H]1C)N(C)C` [GALLINAMIDE A], at Falcipain-3, the IC50 came to 0.022 µM.

For orientation: Kd means the constant that tells how readily two partners part at equilibrium. On to `O=C(/C=C\c1ccc(O)c(O)c1)O[C@H]1CO[C@@H](Oc2c(-c3ccc(O)cc3)oc3cc(O)cc(O)c3c2=O)[C@H](OC(=O)/C=C/c2ccc(O)cc2)[C@H]1O`, for which binding on Falcipain 2 [19] was put at a Kd of 33.6 µM. Moreover, the half-maximal inhibitory concentration (IC50) in the data set on Plasmodium falciparum [20] turned out to be 2.9 µM; on Falcipain 2 [21] it was 0.44 µM; in the data set on Plasmodium falciparum [22] it was 2.8 µM.

For `COc1cc(/C=C(\C#N)c2nc3ccccc3[nH]2)cc(OC)c1`, the half-maximal inhibitory concentration (IC50) with Plasmodium falciparum [16] was determined as 14.3 µM; on Falcipain 2 [17], 3.61 µM; in the data set on Plasmodium falciparum [18], 1.6 µM.

The molecule `CC(C)C[C@H](NC(=O)N1CCOCC1)C(=O)N[C@@H](CCc1ccccc1)C(=O)CF` ({Morpholide-CO}-Leu-[hPhe]-CH2F) showed an IC50 at Falcipain 2 [6] of 0.00042 µM.

As for `COc1cc2cc(/C=C/C(=O)c3ccc(Cl)cc3Cl)c(Cl)nc2cc1OC`, the IC50 on Falcipain 2 [23] was > 100 µM; in the data set on Plasmodium falciparum [24], 19 µM.
